The source of these data is US11925629B2, “Heterocyclic inhibitors of ERK1 and ERK2 and their use in the treatment of cancer” (Asana Biosciences, LLC, priority 2015, dated 2024).

The term IC50 denotes the midpoint of a concentration-inhibition curve.

Holding throughout (assay type): cell-based, human
Experiment [1] has as its system phosphorylation of RSK1(S380) (the downstream target of ERK1/2). Put plainly: Phospho-RSK1(S380) ELISA assay in HT-29 cells. To be noted: Homo sapiens, HT-29, HT29 cells, read-out: Mechanistic Cell Assay RSK1 Phos HT29 IC50. Put shortly:
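HT-29 colorectal carcinoma cells (B-RafV600E), plated overnight at 37° C./5% CO2, were treated with compound dilutions for 2 h. Lysates were analysed by phospho-RSK1(Ser380) sandwich ELISA with absorbance at 450 nm. IC50 came from a sigmoidal variable-slope dose-response fit.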
(In general: In an ELISA, binding on a coated surface is turned into a signal by an enzyme label.)

For experiment [2], the system named is HCT116 (colorectal carcinoma, K Ras G13D) cells. Put plainly: Cell proliferation (Alamar Blue) assay, HCT116. The following applies: Homo sapiens, HCT-116, HCT116 cells. Put shortly:
(§1)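 IC50 values derive from variable-slope sigmoidal fits of Alamar Blue fluorescence (540 nm excitation, 590 nm emission, 1-3 h dye incubation). Compound treatment ran 72 h at 37° C./5% CO2 over roughly 0.0005-10 uM in 3-fold steps, on cells plated at 5000/well and pre-incubated 16-24 h.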

In experiment [3] the test system is HT-29 (colorectal carcinoma, B-RafV600E) cells. Put plainly: Cell proliferation (Alamar Blue) assay, HT-29. To be noted: Homo sapiens, HT-29, HT29 cells. Put shortly: as §1
On the technique in general: Resazurin is reduced to fluorescent resorufin, in cell work by metabolically active cells.

Like-named read-outs stand apart in the source and are kept apart here.

With `Cc1cnc(Nc2ccc(F)cc2Cl)nc1-n1ccc(C(=O)NC(CO)c2ccccc2)c1` (stereo not drawn) [Example 32, 1-(2-((2-chloro-4-fluorophenyl)amino)-5-methyl-pyrimidin-4-yl)-N-(2-hydroxy-1-phenylethyl)-1H-pyrrole-3-carboxamide], the IC50 in experiment [1] (phospho-RSK1(S380)) is 0.5 to 2.5 µM; in experiment [2], over 2.5 µM; in experiment [3], over 2.5 µM.
Turning to `Cc1cnc(N[C@H]2CCOC2)nc1-n1cnc(C(=O)N[C@H](CO)c2cccc(Cl)c2)c1` [Compound 192, N—((S)-1-(3-Chlorophenyl)-2-hydroxyethyl)-1-(5-methyl-2-(((S)-tetrahydrofuran-3-yl)amino)pyrimidin-4-yl)-1H-imidazole-4-carboxamide], the IC50 in experiment [1] (phospho-RSK1(S380)) is 0.25 to 0.5 µM; in experiment [2], over 2.5 µM; in experiment [3], 0.25 to 0.5 µM.
Regarding `CC[C@@H](CO)Nc1ncc(C)c(-n2ccc(C(=O)NC(CO)c3cccc(Cl)c3)c2)n1` (stereo partly drawn) [Example 146, N-(1-(3-chloro-phenyl)-2-hydroxy-ethyl)-1-(2-(((S)-1-hydroxy-butan-2-yl)amino)-5-methyl-pyrimidin-4-yl)-1H-pyrrole-3-carboxamide], the figures for the concentration for half-maximal inhibition (IC50) in experiment [1] (phospho-RSK1(S380)), in experiment [2] and in experiment [3] were 0.1 to 0.25 µM, 0.5 to 2.5 µM and 0.5 to 2.5 µM, respectively.
With `Cc1cnc(N[C@H]2CCOC2)nc1-n1cnc(C(=O)NCc2cccc(Cl)c2)c1` [Example 318, (S)-N-(3-chlorobenzyl)-1-(5-methyl-2-((tetrahydrofuran-3-yl)amino)pyrimidin-4-yl)-1H-imidazole-4-carboxamide], the IC50 is 0.5 to 2.5 µM in experiment [1], over 2.5 µM in experiment [2] and 0.5 to 2.5 µM in experiment [3].
`Cc1cnc(N[C@H]2CCOC2)nc1-n1ccc(C(=O)NC(CO)c2ccc(F)cc2)c1` (stereo partly drawn) [Example 204, N-(1-(4-fluorophenyl)-2-hydroxyethyl)-1-(5-methyl-2-(((S)-tetrahydrofuran-3-yl)amino)pyrimidin-4-yl)-1H-pyrrole-3-carboxamide]: the IC50 is 0.5 to 2.5 µM in experiment [1] (phospho-RSK1(S380)), over 2.5 µM in experiment [2] and 0.5 to 2.5 µM in experiment [3].
Take `Cc1cnc(NC2CC(F)(F)C2)nc1-n1cnc(C(=O)N[C@H](CN)c2cc(F)cc(Cl)c2)c1` [Example 288, (S)-N-(2-amino-1-(3-chloro-5-fluorophenyl)ethyl)-1-(2-((3,3-difluorocyclobutyl)amino)-5-methylpyrimidin-4-yl)-1H-imidazole-4-carboxamide]: the IC50 in experiment [1] (phospho-RSK1(S380)) was 0.1 to 0.25 µM; in experiment [2], at most 0.1 µM; in experiment [3], at most 0.1 µM.
Consider `Cc1cnc(Nc2ccc3c(c2)OCO3)nc1-n1ccc(C(=O)N[C@H](CO)Cc2ccccc2)c1` [Example 59, (S)-1-(2-(benzo[d][1,3]dioxol-5-ylamino)-5-methyl-pyrimidin-4-yl)-N-(1-hydroxy-3-phenyl-propan-2-yl)-1H-pyrrole-3-carboxamide], for which the IC50 in experiment [1] (phospho-RSK1(S380)), in experiment [2] and in experiment [3] was 0.25 to 0.5 µM throughout.
As to `COc1cc(Nc2ncc(C)c(-n3ccc(C(=O)NC(CO)c4ccccc4)c3)n2)ccc1F` (stereo not drawn) [Example 154, 1-(2-((4-fluoro-3-methoxy-phenyl)amino)-5-methyl-pyrimidin-4-yl)-N-(2-hydroxy-1-phenylethyl)-1H-pyrrole-3-carboxamide], the IC50 in experiment [1] (phospho-RSK1(S380)) was 0.25 to 0.5 µM; in experiment [2] it was 0.1 to 0.25 µM; in experiment [3], 0.5 to 2.5 µM.
In the case of `Cc1cnc(Nc2ccc(N3CCNCC3)cc2)nc1-n1ccc(C(=O)NC(CO)c2ccccc2)c1` (stereo not drawn) [Example 73, N-(2-hydroxy-1-phenylethyl)-1-(5-methyl-2-((4-(piperazin-1-yl)-phenyl)amino)pyrimidin-4-yl)-1H-pyrrole-3-carboxamide], the figures for the IC50 in experiment [1] (phospho-RSK1(S380)), in experiment [2] and in experiment [3] were over 2.5 µM, 0.5 to 2.5 µM and 0.5 to 2.5 µM, respectively.
In the case of `Cc1cnc(N[C@H]2CCOC2)nc1-n1cnc(C(=O)NCc2cccc(Cl)c2CO)c1` [Example 270], the results for the IC50 in experiment [1] (phospho-RSK1(S380)), in experiment [2] and in experiment [3] were 0.1 to 0.25 µM, at most 0.1 µM and at most 0.1 µM, respectively.
As to `O=C(Nc1cnn(-c2ccnc(Nc3ccc4c(c3)OCO4)n2)c1)N[C@H](CO)c1cccc(Cl)c1` [Example 21, (S)-1-(1-(2-(benzo[d][1,3]dioxol-5-ylamino)-pyrimidin-4-yl)-1H-pyrazol-4-yl)-3-(1-(3-chlorophenyl)-2-hydroxyethyl) urea], the IC50 in experiment [1] (phospho-RSK1(S380)), in experiment [2] and in experiment [3] was over 2.5 µM each time.
As for `Cc1cnc(Nc2ccc3c(c2)CCO3)nc1-n1ccc(C(=O)NC(CO)c2ccccc2)c1` (stereo not drawn) [Example 138, 1-(2-((2,3-dihydro-benzofuran-5-yl)amino)-5-methyl-pyrimidin-4-yl)-N-(2-hydroxy-1-phenylethyl)-1H-pyrrole-3-carboxamide], the IC50 in experiment [1] (phospho-RSK1(S380)), in experiment [2] and in experiment [3] was 0.1 to 0.25 µM each time.
In the case of `Cc1cnc(NC2CCOCC2)nc1-n1cnc(C(=O)NC(CN)c2cccc(Cl)c2)c1` (racemic) [Compound 225, N-(2-Amino-1-(3-chlorophenyl)ethyl)-1-(5-methyl-2-((tetrahydro-2H-pyran-4-yl)amino)pyrimidin-4-yl)-1H-imidazole-4-carboxamide], the IC50 in experiment [1] (phospho-RSK1(S380)), in experiment [2] and in experiment [3] was at most 0.1 µM each time.
As for `CCC(C)Nc1ncc(C)c(-n2ccc(C(=O)N[C@H](CO)c3ccc(F)c(Cl)c3)c2)n1` (stereo partly drawn) [Example 197, 1-(2-(sec-butylamino)-5-methylpyrimidin-4-yl)-N-((S)-1-(3-chloro-4-fluorophenyl)-2-hydroxyethyl)-1H-pyrrole-3-carboxamide], the results for the IC50 in experiment [1] (phospho-RSK1(S380)), in experiment [2] and in experiment [3] were 0.25 to 0.5 µM, over 2.5 µM and 0.5 to 2.5 µM, respectively.
For `CC[C@H](CO)Nc1cc(-n2cnc(C(=O)N[C@H](CO)c3cccc(Cl)c3)c2)ccn1` [Cmpd 105, N-((S)-1-(3-chlorophenyl)-2-hydroxy-ethyl)-1-(2-(((R)-1-hydroxy-butan-2-yl)amino)pyridin-4-yl)-1H-imidazole-4-carboxamide], the IC50 in experiment [1] (phospho-RSK1(S380)) is 0.1 to 0.25 µM; in experiment [2] it was over 2.5 µM; in experiment [3], over 2.5 µM.
As to `COc1cc(Nc2ncc(C)c(-n3ccc(C(=O)NC(CO)c4ccccc4)c3)n2)cc(OC)c1OC` (stereo not drawn) [Example 121, N-(2-hydroxy-1-phenylethyl)-1-(5-methyl-2-((3,4,5-trimethoxy-phenyl)amino)pyrimidin-4-yl)-1H-pyrrole-3-carboxamide], the IC50 in experiment [1] (phospho-RSK1(S380)), in experiment [2] and in experiment [3] was 0.25 to 0.5 µM each time.
Take `O=C(NC(CO)c1cccc(Cl)c1)c1ccn(-c2cc(Nc3ccccc3)ncc2Cl)c1` (stereo not drawn) [Example 124, 1-(5-chloro-2-(phenyl-amino)pyridin-4-yl)-N-(1-(3-chlorophenyl)-2-hydroxy-ethyl)-1H-pyrrole-3-carboxamide]: the IC50 in experiment [1] (phospho-RSK1(S380)) is 0.5 to 2.5 µM; in experiment [2] it was over 2.5 µM; in experiment [3] it was 0.5 to 2.5 µM.
For `Cc1cnc(NC2CCNCC2)nc1-n1cnc(C(=O)NC(CO)c2cccc(Cl)c2)c1` (stereo not drawn) [Example 214, N-(1-(3-chlorophenyl)-2-hydroxyethyl)-1-(5-methyl-2-(piperidin-4-ylamino)pyrimidin-4-yl)-1H-imidazole-4-carboxamide], the IC50 in experiment [1] (phospho-RSK1(S380)), in experiment [2] and in experiment [3] was over 2.5 µM throughout.
For `Cc1cnc(NC2CCOCC2)nc1-n1cnc(C(=O)NCc2cccc(Cl)c2CCO)c1` [Example 334, N-(3-chloro-2-hydroxyethylbenzyl)-1-(5-methyl-2-((tetrahydro-2H-pyran-4-yl)amino)pyrimidin-4-yl)-1H-imidazole-4-carboxamide], the IC50 in experiment [1], in experiment [2] and in experiment [3] was at most 0.1 µM throughout.
As to `Cc1cnc(NC2CCOCC2)nc1-n1cnc(C(=O)NCc2nccs2)c1` [Example 281, 1-(5-methyl-2-((tetrahydro-2H-pyran-4-yl)amino)pyrimidin-4-yl)-N-(thiazol-2-ylmethyl)-1H-imidazole-4-carboxamide], the IC50 is 0.1 to 0.25 µM in experiment [1] (phospho-RSK1(S380)), over 2.5 µM in experiment [2] and 0.5 to 2.5 µM in experiment [3].
Take `Cc1cnc(Nc2ccc(N3CCC(N4CCNCC4)CC3)cc2)nc1-n1ccc(C(=O)NC(CO)c2ccccc2)c1` (stereo not drawn) [Example 178, N-(2-hydroxy-1-phenylethyl)-1-(5-methyl-2-((4-(4-(piperazin-1-yl)piperidin-1-yl)phenyl)amino)pyrimidin-4-yl)-1H-pyrrole-3-carboxamide]: the IC50 is 0.25 to 0.5 µM in experiment [1] (phospho-RSK1(S380)), 0.5 to 2.5 µM in experiment [2] and over 2.5 µM in experiment [3].
As to `CC[C@@H](CO)Nc1ncc(C)c(-n2cnc(C(=O)N[C@H](CO)c3cccc(Cl)c3)c2)n1` [Example 220, N-((S)-1-(3-chlorophenyl)-2-hydroxyethyl)-1-(2-(((S)-1-hydroxybutan-2-yl)amino)-5-methylpyrimidin-4-yl)-1H-imidazole-4-carboxamide], the IC50 in experiment [1] (phospho-RSK1(S380)) was in the range of 0.25 to 0.5 µM; in experiment [2], 0.5 to 2.5 µM; in experiment [3], 0.1 to 0.25 µM.
Take `Cc1cnc(NC2CCOCC2)nc1-n1cnc(C(=O)N[C@H](CNC2CCOCC2)c2cccc(Cl)c2)c1` [Example 308, (S)-N-(1-(3-chlorophenyl)-2-((tetrahydro-2H-pyran-4-yl)amino)ethyl)-1-(5-methyl-2-((tetrahydro-2H-pyran-4-yl)amino)pyrimidin-4-yl)-1H-imidazole-4-carboxamide]: the figures for the IC50 in experiment [1], in experiment [2] and in experiment [3] were 0.5 to 2.5 µM, 0.25 to 0.5 µM and over 2.5 µM, respectively.
